Results from PMC6658769, “First-Time-in-Human Study and Prediction of Early Bactericidal Activity for GSK3036656, a Potent Leucyl-tRNA Synthetase Inhibitor for Tuberculosis Treatment” (Antimicrobial Agents and Chemotherapy, 2019).
In brackets after ≈: the same amount, converted by molar mass. Like-named read-outs stand apart in the source and are kept apart here.

Key:
clinical [1] = conditions: human, in vivo, po, 5 mg, Ref
clinical [2] = conditions: human, in vivo, po
[3] = FTIH part A: plasma pharmacokinetics after single dose; conditions: human, po
[4] = target: breast cancer resistance protein (Homo sapiens, UniProt Q9UNQ0); assay: BCRP substrate assessment; type: in vitro ADME; conditions: in vitro
cytochrome P450s = type: in vitro ADME
CYP3A4 = CYP3A4 (Homo sapiens, UniProt P08684); assay: Metabolism-dependent inhibition or induction of CYP3A4; type: in vitro ADME; conditions: in vitro
[5] = FTIH part B: plasma pharmacokinetics and accumulation after repeat dose; conditions: human, po
OATP1B1 = target: T1, OATP1B1 (Homo sapiens, UniProt Q9Y6L6); assay: Direct inhibition of OATP1B1; type: in vitro ADME; conditions: in vitro
T1 sequence (Q9Y6L6 1-691): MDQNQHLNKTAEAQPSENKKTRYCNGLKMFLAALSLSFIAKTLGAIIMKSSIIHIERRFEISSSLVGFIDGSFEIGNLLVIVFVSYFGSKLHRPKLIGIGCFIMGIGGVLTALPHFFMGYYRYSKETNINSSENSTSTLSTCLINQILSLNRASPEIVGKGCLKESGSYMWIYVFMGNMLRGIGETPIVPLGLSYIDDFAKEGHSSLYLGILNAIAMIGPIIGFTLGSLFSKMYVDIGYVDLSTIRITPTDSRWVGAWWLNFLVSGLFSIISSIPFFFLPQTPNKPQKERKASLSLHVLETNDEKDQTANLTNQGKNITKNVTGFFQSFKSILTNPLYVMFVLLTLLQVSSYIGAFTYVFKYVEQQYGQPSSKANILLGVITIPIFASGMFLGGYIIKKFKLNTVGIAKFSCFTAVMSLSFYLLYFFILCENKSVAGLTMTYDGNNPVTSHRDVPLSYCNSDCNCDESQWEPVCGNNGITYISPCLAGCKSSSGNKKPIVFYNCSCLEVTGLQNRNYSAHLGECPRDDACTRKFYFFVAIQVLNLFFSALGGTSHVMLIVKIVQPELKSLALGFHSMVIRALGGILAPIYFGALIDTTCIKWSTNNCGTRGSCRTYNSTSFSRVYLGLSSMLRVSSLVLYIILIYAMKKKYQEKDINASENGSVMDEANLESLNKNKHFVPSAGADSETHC

[6] = human, in vivo
[7] = Population PK model at completion of the study
[8] = Food effect study (part A, high-fat meal); conditions: 5 mg; for half-life: human, plasma, po, t1/2, geometric LS mean
[9] = tested on: panel of mammalian cell lines; assay: Activity against a panel of mammalian cell lines; type: cell-based
[10] = type: in vitro ADME; conditions: not told
[11] = Chronic lung infection model in mice; type: in vivo, C57BL/6 mice; conditions: C57BL/6, mouse, in vivo, 1.3 mg/kg, read-out: plasma steady-state AUC associated with EDmax (AUCEDmax), target exposure for efficacy in humans
Description: (§1) The efficacy of GSK3036656 was assessed in C57BL/6 mice having acute and chronic lung infections by M. tuberculosis H37Rv, which mimic infections by actively replicating and nonreplicating/slow-replicating mycobacteria, respectively ([13], [14]). In the acute model, 10 mice were administered different daily oral doses ranging from 0.1 to 100 mg/kg of body weight for 8 days starting 1 day after infection. A maximum difference of 3.6 log CFU was obtained in the lungs compared to untreated mice. […] In the chronic model, a total of 18 mice were administered doses ranging from 0.1 to 30 mg/kg from weeks 6 to 14 after infection. Maximum reduction (drop of 2.1 log10 CFU in the lungs) was achieved after 2 months of daily oral treatment and after fitting the data to a sigmoidal curve. The EDmax for GSK3036656 was estimated as 1.3 mg/kg ([…], 0.7 to 3.4 mg/kg). […] Some additional groups treated at 0.3 to 30 mg/kg were studied in the chronic model to obtain kinetic data (from 2 to 16 weeks of treatment).

M. tuberculosis H37Rv = assay: Chronic lung infection model in mice; type: in vivo, C57BL/6 mice
Description: as §1

[12] = human, in vivo; remark: listed apart in the source
in vitro = in vitro ADME, humans; conditions: human, plasma
[13] = tested on: M. tuberculosis fast-growing and slow-growing populations; assay: PK/PD parameters estimated from acute and chronic mouse infection models; type: in vivo; conditions: for EC50: Mycobacterium tuberculosis
P-glycoprotein (P-gp) = P-glycoprotein (P-gp) (Homo sapiens, UniProt P08183); assay: P-gp substrate assessment; type: in vitro ADME; conditions: not told
P-glycoprotein (P-gp), sequence (P08183 whole entry): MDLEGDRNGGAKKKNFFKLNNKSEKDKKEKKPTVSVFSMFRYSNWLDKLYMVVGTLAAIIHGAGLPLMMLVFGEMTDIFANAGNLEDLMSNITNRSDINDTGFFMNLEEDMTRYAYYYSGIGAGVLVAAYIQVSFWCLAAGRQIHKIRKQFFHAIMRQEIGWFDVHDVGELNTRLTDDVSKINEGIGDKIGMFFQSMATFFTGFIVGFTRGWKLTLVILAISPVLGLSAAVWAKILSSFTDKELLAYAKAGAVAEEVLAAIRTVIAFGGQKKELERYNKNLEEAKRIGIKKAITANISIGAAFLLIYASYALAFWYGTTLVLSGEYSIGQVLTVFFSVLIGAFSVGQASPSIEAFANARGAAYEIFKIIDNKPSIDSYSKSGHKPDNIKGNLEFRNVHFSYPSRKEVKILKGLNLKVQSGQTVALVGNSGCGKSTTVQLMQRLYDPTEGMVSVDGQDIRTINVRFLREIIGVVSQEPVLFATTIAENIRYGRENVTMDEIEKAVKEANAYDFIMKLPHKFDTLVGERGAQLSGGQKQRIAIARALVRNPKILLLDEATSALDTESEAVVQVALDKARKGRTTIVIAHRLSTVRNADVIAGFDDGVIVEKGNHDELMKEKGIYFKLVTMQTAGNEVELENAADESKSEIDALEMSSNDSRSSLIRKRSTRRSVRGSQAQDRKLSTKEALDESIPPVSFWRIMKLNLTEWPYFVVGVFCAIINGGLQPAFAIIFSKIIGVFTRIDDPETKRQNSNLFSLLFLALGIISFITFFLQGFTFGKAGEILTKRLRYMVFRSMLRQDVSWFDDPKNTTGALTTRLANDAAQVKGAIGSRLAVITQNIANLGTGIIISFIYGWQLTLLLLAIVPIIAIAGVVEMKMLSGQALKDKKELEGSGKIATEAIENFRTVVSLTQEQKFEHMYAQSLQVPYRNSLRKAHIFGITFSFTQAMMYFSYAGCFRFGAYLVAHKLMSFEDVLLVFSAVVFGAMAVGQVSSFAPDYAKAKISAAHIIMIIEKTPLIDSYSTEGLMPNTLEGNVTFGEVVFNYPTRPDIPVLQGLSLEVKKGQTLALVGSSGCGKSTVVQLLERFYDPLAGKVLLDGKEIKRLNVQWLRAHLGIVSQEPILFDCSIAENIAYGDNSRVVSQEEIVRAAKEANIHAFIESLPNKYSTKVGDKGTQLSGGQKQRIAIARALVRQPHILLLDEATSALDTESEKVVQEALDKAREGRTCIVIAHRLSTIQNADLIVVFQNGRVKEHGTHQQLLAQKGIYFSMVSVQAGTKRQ

CYP3A4, sequence (P08684 whole entry): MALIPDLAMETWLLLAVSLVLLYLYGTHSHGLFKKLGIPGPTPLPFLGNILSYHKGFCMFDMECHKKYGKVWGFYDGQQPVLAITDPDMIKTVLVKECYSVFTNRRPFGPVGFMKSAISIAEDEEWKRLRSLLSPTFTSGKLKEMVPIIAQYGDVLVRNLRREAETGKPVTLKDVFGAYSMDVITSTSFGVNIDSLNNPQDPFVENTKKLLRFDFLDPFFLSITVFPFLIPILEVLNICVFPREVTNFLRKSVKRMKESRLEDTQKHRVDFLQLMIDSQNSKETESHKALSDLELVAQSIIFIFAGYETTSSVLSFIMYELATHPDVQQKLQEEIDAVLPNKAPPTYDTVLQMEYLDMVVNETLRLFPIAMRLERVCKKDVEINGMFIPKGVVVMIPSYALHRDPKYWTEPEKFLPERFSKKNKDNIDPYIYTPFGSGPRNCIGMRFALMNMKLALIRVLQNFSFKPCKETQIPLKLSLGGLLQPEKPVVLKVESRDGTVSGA
breast cancer resistance protein, sequence (Q9UNQ0 whole entry): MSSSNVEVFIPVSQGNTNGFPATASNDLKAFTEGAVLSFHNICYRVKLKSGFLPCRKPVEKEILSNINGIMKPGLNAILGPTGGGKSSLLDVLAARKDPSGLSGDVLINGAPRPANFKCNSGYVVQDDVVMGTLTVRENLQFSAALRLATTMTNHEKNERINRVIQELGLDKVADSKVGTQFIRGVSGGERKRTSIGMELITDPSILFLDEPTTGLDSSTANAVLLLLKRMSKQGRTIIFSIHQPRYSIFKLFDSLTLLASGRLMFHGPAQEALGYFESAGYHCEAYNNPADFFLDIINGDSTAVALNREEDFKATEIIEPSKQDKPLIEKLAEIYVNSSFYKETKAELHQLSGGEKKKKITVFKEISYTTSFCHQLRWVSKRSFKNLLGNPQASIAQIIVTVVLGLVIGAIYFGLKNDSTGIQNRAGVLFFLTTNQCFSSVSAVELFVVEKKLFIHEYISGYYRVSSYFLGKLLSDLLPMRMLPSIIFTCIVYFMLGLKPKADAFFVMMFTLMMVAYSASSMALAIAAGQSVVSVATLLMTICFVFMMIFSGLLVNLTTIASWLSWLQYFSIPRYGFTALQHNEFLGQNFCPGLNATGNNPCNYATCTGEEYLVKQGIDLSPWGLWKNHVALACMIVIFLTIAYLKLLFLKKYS

NC[C@H]1OB(O)c2c(OCCO)ccc(Cl)c21 [GSK3036656, (S)-3-(aminomethyl)-4-chloro-7-(2-hydroxyethoxy)benzo[c][1,2]oxaborol-1(3H)-ol]
AUC(0-t) (clinical [1]; AUC0–t, geometric LS mean): 732 ng·h/mL
AUC(0-inf) (clinical [1]; AUC0–∞, geometric LS mean): 1430 ng·h/mL
Cmax (clinical [1]; Cmax, geometric LS mean): 48.4 ng/mL
Tmax (clinical [1]; Tmax): 1.25 h
AUC(0-inf) (clinical [2]; both, 5 mg): 1400 ng·h/mL
AUC(0-t) (clinical [2]; both, 5 mg): 771 ng·h/mL
Cmax (clinical [2]; both, 5 mg): 49.1 ng/mL
Tmax (clinical [2]; both, 5 mg): 1.1 h
AUC(0-inf) (clinical [2]; both, 15 mg): 3800 ng·h/mL
AUC(0-t) (clinical [2]; both, 15 mg): 3250 ng·h/mL
Cmax (clinical [2]; both, 15 mg): 178 ng/mL
AUC(0-inf) (clinical [2]; 25 mg): 6560 ng·h/mL
AUC(0-t) (clinical [2]; 25 mg): 5690 ng·h/mL
Cmax (clinical [2]; 25 mg): 207 ng/mL
Tmax (clinical [2]; 25 mg): 1.1 h
half-life ([3]; both, 5 mg): 40.9 h
half-life ([3]; both, 15 mg): 28.4 h
half-life ([3]; 25 mg): 49.9 h
substrate specificity for breast cancer resistance protein [4]: lack of substrate specificity
direct inhibition of cytochrome P450s (cytochrome P450s): minimal evidence for direct inhibition
metabolism-dependent inhibition or induction of CYP3A4 (CYP3A4): no evidence
half-life at 14 days ([5]; 5 mg): 44 h
half-life at 14 days ([5]; 15 mg): 37 h
direct inhibition of OATP1B1 (OATP1B1): minimal evidence for direct inhibition
Total % dose (drug-related material) in pooled urine [6]: 50 % dose
CL/F, bootstrap median estimate ([7]; bootstrap (1,000 runs)): 3.7 L/h
IIV Q/F, bootstrap median estimate ([7]; bootstrap (1,000 runs)): 26.5
IIV V2/F, bootstrap median estimate ([7]; bootstrap (1,000 runs)): 107
IIV V3/F, bootstrap median estimate ([7]; bootstrap (1,000 runs)): 22.9
Q/F, bootstrap median estimate ([7]; bootstrap (1,000 runs)): 63.1 L/h
V2/F, bootstrap median estimate ([7]; bootstrap (1,000 runs)): 15.9 L
V3/F, bootstrap median estimate ([7]; bootstrap (1,000 runs)): 149 L
CL/F, estimate (%SE) ([7]; final population PK model): 3.69 (3) liters/h
Q/F, estimate (%SE) ([7]; final population PK model): 63 (15) liters/h
V2/F, estimate (%SE) ([7]; final population PK model): 14.9 (30) liters
V3/F, estimate (%SE) ([7]; final population PK model): 150 (6) liters
IIV Q/F, estimate (%SE) ([7]; random effects, final model): 27.3 (37)
IIV V2/F, estimate (%SE) ([7]; random effects, final model): 111 (37)
IIV V3/F, estimate (%SE) ([7]; random effects, final model): 23.3 (30)
t1/2 ratio ([8]; fed vs fasted): 0.89
half-life ([8]; Ref, 5 mg fasted, n = 6): 38.6 h
half-life ([8]; Test, 5 mg fed, n = 5): 34.4 h
activity against a panel of mammalian cell lines [9]: inactivity
passive permeability [10]: moderate
AUC [11]: 1740 ng·h/mL
maximum reduction (drop of CFU in the lungs) (M. tuberculosis H37Rv; 2 months of daily oral treatment): 2.1 log10 CFU
EDmax (M. tuberculosis H37Rv; sigmoidal fit): 1.3 mg/kg
dose-proportionality slope, Cmax ([12]; both): 1.19
steady-state AUC relative to the target exposure for efficacy in humans (1,740 ng · h/ml) ([12]; both): approximately 2.5 fold
accumulation of Cmax and AUC0–τ with repeated administration ([12]; both, 14 days): 2-3 fold
dose-proportionality slope, Cmax ([12]; both, 14 days): 1.06
RoCmax, geometric LS mean, Ref ([12]; 5 mg): 48.40 ng/mL
RoCmax, geometric LS mean, Test ([12]; 5 mg): 97.04 ng/mL
RoCmax, geometric LS mean, Ref ([12]; 15 mg): 178.79 ng/mL
RoCmax, geometric LS mean, Test ([12]; 15 mg): 309.55 ng/mL
fraction unbound (in vitro): 0.838
EC50 ([13]; fast-growing population, SE = 13%, read-out: EC50-F in mouse): 0.0156 µg/mL (≈ 0.0606 µM)
EC50 ([13]; slow-growing population, SE = 23%, read-out: EC50-S in mouse): 0.0317 µg/mL (≈ 0.123 µM)
Emax-S (maximum killing rate against a slow-growing population) ([13]; fixed to estimated value from mouse infection models): 0.0037 (FIX)^b h^−1
P-gp substrate (P-glycoprotein (P-gp)): not a P-glycoprotein (P-gp) substrate
